Test results published in ChEMBL document CHEMBL1152824, “A novel insertion sequence, ISPA26, in oprD of Pseudomonas aeruginosa is associated with carbapenem resistance” (2007).
Values after ≈ are worked out from the molar mass of the structure shown.

How the values were obtained:
[1] = test system: Pseudomonas aeruginosa; test: Antibacterial activity against Pseudomonas aeruginosa tracheal aspirate isolate 7 carrying insertion sequence ISPa26 by disk susceptibility test; assay type: functional
[2] = test system: Pseudomonas aeruginosa; test: microbe, parasite or virus in culture
Description: Antibacterial activity against Pseudomonas aeruginosa cystic fibrosis sputum isolate 529 carrying insertion sequence ISPa26 by disk susceptibility test

[3] = test system: Pseudomonas aeruginosa; test: Antibacterial activity against Pseudomonas aeruginosa pus isolate 6 carrying insertion sequence ISPa26 by disk susceptibility test; assay type: functional
[4] = test system: Pseudomonas aeruginosa; test: Antibacterial activity against Pseudomonas aeruginosa cystic fibrosis sputum isolate 286 carrying insertion sequence ISPa26 by disk susceptibility test; assay type: functional
[5] = test system: Pseudomonas aeruginosa; test: Antibacterial activity against Pseudomonas aeruginosa tracheal aspirate isolate 8 carrying insertion sequence ISPa26 inserted into oprD gene by disk susceptibility test; assay type: functional
[6] = test system: Pseudomonas aeruginosa; test: Antibacterial activity against Pseudomonas aeruginosa tracheal aspirate isolate 12 carrying insertion sequence ISPa26 by disk susceptibility test; assay type: functional
[7] = test system: Pseudomonas aeruginosa; test: Antibacterial activity against Pseudomonas aeruginosa blood isolate 1 carrying insertion sequence ISPa26 by disk susceptibility test; assay type: functional

Row | SMILES | MIC [1] | MIC [2] | MIC [3] | MIC [4] | MIC [5] | MIC [6] | MIC [7]
1 | C[C@@H](O)[C@H]1C(=O)N2C(C(=O)O)=C(S[C@@H]3CN[C@H](C(=O)N(C)C)C3)[C@H](C)[C@H]12 [MEROPENEM] | 6 µg/mL (≈ 15.6 µM) | 2 µg/mL (≈ 5.22 µM) | 6 µg/mL (≈ 15.6 µM) | > 32 µg/mL | > 32 µg/mL | 3 µg/mL (≈ 7.82 µM) | > 32 µg/mL
2 | C[C@@H](O)[C@H]1C(=O)N2C(C(=O)O)=C(SCCNC=N)C[C@H]12 [IMIPENEM ANHYDROUS] | > 32 µg/mL | 1 µg/mL (≈ 3.34 µM) | > 32 µg/mL | > 32 µg/mL | > 32 µg/mL | 2 µg/mL (≈ 6.68 µM) | > 32 µg/mL
